Source: US11253594B2, “Drug combinations for protecting against neuronal cell death” (UNIVERSITY OF PITTSBURGH-OF THE COMMONWEALTH SYSTEM OF …, priority 2017, dated 2022)
Where a name gives a salt, the structure may show the parent alone. Read-outs that look alike come from different tables or passages of the source.

Columns and labels:
STHdh^Q111 cells [1] = test: 384-well PI (propidium iodide) assay, protection from mHTT induced cell death; format: cell-based, mouse; settings: compound titrations, serum deprived STHdh^Q111 cells
Experimental: The well-established STHdh^Q111 cell model for HD was employed to identify compounds that can protect neuronal cells from mHTT-dependent cell death. […] The propidium iodide (PI) readout enables an unbiased assessment of cell death by measuring an irreversible step that is common to all cytotoxic mechanisms.
The stress conditions for testing compounds involved incubation of the cells in serum-free medium at 37° C. and 5% CO2.
Prior to compound treatment, medium was removed and the cells washed once with PBS (pH=7.4) after which 45 μl of complete medium was added. Compounds in 5 μl complete medium were added to cells. […] Compounds in serum free medium (5 μl) were added and cells were incubated at 37° C. and 5% CO2.
Image analysis was carried out using the Multiwavelength Cell Scoring application in the MetaXpress software. The nuclear compartment was identified in Ch1 with a threshold intensity of 2,000 above background and the Texas Red compartment was identified in Ch2 with a threshold intensity of 20,000 above background.
For the analyses presented here the Percent Recovery was calculated from the Percent PI positive cells by:
[formula] where positive controls are the STHdh^Q7 cells, and negative controls are the STHdh^Q111 cells treated with DMSO
The LOPAC library was screened in the 384-well PI assay at 30, 10, and 3 μM.

cells expressing mHTT [2] = test: Example 2 screen of a larger mechanistically diverse chemical library for protection from mHTT-induced cytotoxicity
STHdh^Q111 cells [3] = format: cell-based; settings: for reduction in the level of protection compared to compound alone: co-incubation with 10 μM H89; for toxicity / protection with or of the PKA inhibitor: STHdh^Q111 cells, PI assay conditions
[4] = tested on: PKA phosphorylated at threonine 197 (pPKA) in STHdh^Q111 cells; test: PKA activation assay (pPKA, high content analysis); format: cell-based, mouse; settings: 24 h serum free conditions
Experimental: The pPKA levels were examined at 24 hours after serum free conditions since this was the condition where the protection of the compounds was measured.
Cells were treated as described for testing in the 384-well PI assay. […] Plates were blocked with 3% BSA in PBS and were incubated with rabbit anti-PKA (αβγ catalytic subunit; EP2606Y; phospho-T197, abcam, Cambridge Mass.) mAb overnight at 4° C. […] Image analysis was carried out using the Multiwavelength Translocation application in the MetaExpress software. The nuclear compartment was identified in Ch1 with a threshold intensity of 5,000 above background (the nuclear mask). The nuclear mask was eroded 1 μm to create the Inner region mask in Ch2. […] The cytoplasmic pKA was measured in a […] ring around the nuclear mask.

cells expressing mHTT [5] = tested on: cells expressing mHTT
[6] = tested on: cAMP levels in STHdh^Q111 cells; test: cAMP Enzyme Immunoassay
PKA = PKA (Homo sapiens, UniProt P17612); settings: cited from earlier work
[7] = tested on: pCREB in the nucleus of STHdh^Q111 cells; test: Nuclear pCREB high content analysis (surrogate marker for PKA activity); format: cell-based, mouse; settings: 10 μM H89 co-incubated with protective compounds
Source text: The concentrations used were chosen to be on plateau of their respective activity curves (see FIG. 3). […] Analysis is from triplicate samples run in four independent experiments (Error bars are +/−SE). T-test was used to assess changes in the percent recovery levels relative to the STHdh^Q111 cells treated with compound without H89. […] Analysis was from triplicate samples run in four independent experiments (Error bars are +/−SE). T-test was used to assess changes in the pCREB intensity relative to the STHdhQ111 cells treated with compound without H89.
H89 has been used extensively in the literature as a selective and potent inhibitor of PKA. If the protection from cell death by these compounds involved activation of PKA, then the addition of an inhibitor of PKA would be expected to reverse the protective effects of the compounds. […] Since the primary canonical mechanism of sodium nitroprusside is activation of PKG, and given that H89 is ˜10-fold selective for PKA over PKG, the absence of a marked effect with sodium nitroprusside is not unexpected. […] To confirm inhibition of PKA activity by H89 under the conditions of the PI assay, the levels of nuclear pCREB were measured using high content analysis. Consistent with the heterogeneity seen in the response of the STHdh^Q111 cells to protection by the compounds, a heterogeneous distribution of pCREB levels was also detected. […]

Row | Compound | neuroprotective activity in the PI assay (STHdh^Q111 cells [1]) | also measured
1 | m-Iodobenzylguanidine hemisulfate | confirmed neuroprotective activity | –
2 | CCCn1c(C)c(C(=O)c2cccc3ccccc23)c2ccccc21 [JWH-015] | confirmed neuroprotective activity | protection from mHTT-induced cytotoxicity in the screen (cells expressing mHTT [2]): demonstrating protection
3 | CN1CCN2c3ccccc3Cc3ccccc3C2C1 (stereo not shown) [Mianserin hydrochloride] | confirmed neuroprotective activity | reduction in the level of protection compared to compound alone (STHdh^Q111 cells [3]): 35%; cytoplasmic pPKA, concentration response [4]: concentration-dependent increase
4 | CNC(=O)COC(=O)N1CCC(CCc2ccc(Cl)cc2)CC1 [SA 57] | – | protection from mHTT-induced cytotoxicity in the screen (cells expressing mHTT [5]): demonstrating protection
5 | CCC(NC(C)C)C(O)c1ccc(O)c(O)c1 (stereo not shown) [Isotharine mesylate] | confirmed neuroprotective activity | reduction in the level of protection compared to compound alone (STHdh^Q111 cells [3]): 34%; statistical significance of change in cAMP levels ([6]; 15 and 30 minutes, t-test vs DMSO): statistically significant increase; cytoplasmic pPKA, concentration response [4]: concentration-dependent increase
6 | COc1ccc(Cc2nccc3cc(OC)c(OC)cc23)cc1OC [Papaverine hydrochloride] | confirmed neuroprotective activity | reduction in the level of protection compared to compound alone (STHdh^Q111 cells [3]): 55%; cytoplasmic pPKA, concentration response [4]: less pronounced
7 | CCN[C@H]1CN(CCCOC)S(=O)(=O)c2sc(S(N)(=O)=O)cc21 [Brinzolamide] | did not protect | –
8 | C[C@]12C=CC(=O)C=C1CC[C@@H]1[C@@H]2[C@@H](O)C[C@@]2(C)[C@H]1CC[C@]2(O)C(=O)CO [Prednisolone] | confirmed neuroprotective activity | –
9 | Cc1c(C)c2c(c(C)c1O)CCC(C)(CN1CCN(c3cc(N4CCCC4)nc(N4CCCC4)n3)CC1)O2.Cl.Cl (stereo not shown) [U-83836 dihydrochloride] | confirmed neuroprotective activity | –
10 | Tetradecylthioacetic acid | confirmed neuroprotective activity | –
11 | C[C@H]1C[C@H]2[C@@H]3CCC4=CC(=O)C=C[C@]4(C)[C@@]3(Cl)[C@@H](O)C[C@]2(C)[C@@]1(O)C(=O)CO [Beclomethasone] | confirmed neuroprotective activity | –
12 | CN1[C@@H]2CC[C@H]1C[C@@H](OC(c1ccccc1)c1ccccc1)C2 [Benztropine mesylate] | confirmed neuroprotective activity | toxicity / protection with or of the PKA inhibitor (STHdh^Q111 cells [3]): increased toxicity; cytoplasmic pPKA, concentration response [4]: concentration-dependent increase
13 | C/C=C1\C(=O)C[C@H]2[C@@H]3CCC4=CC(=O)CC[C@]4(C)[C@H]3CC[C@]12C [(Z)-Gugglesterone] | confirmed neuroprotective activity | –
14 | C=C[C@@]1(C)CC(=O)[C@]2(O)[C@@]3(C)[C@@H](O)CCC(C)(C)[C@@H]3[C@H](O)[C@H](OC(C)=O)[C@@]2(C)O1 [forskolin] | – | increase in cAMP over the DMSO control ([6]; 15 minutes after compound treatment in the presence of serum): 250 fold
15 | CCN[C@H]1C[C@H](C)S(=O)(=O)c2sc(S(N)(=O)=O)cc21 [Dorzolamide] | did not protect | –
16 | CC(=O)Nc1nnc(S(N)(=O)=O)s1 [Acetazolamide] | did not protect | –
17 | CN1CCN(c2ccc3ccccc3n2)CC1.O=C(O)/C=C\C(=O)O.O=C(O)/C=C\C(=O)O [Quipazine, N-methyl-, dimaleate] | confirmed neuroprotective activity | –

Row | Compound | neuroprotective activity in the PI assay (STHdh^Q111 cells [1]) | also measured
18 | CN1[C@@H]2CC[C@H]1CC(OC(=O)c1c[nH]c3ccccc13)C2.Cl (stereo partly shown) [3-tropanyl-indole-3-carboxylate hydrochloride] | confirmed neuroprotective activity | –
19 | N.N.N.N.N.N.N.N.N.N.N.N.N.N.[Cl-].[Cl-].[Cl-].[Cl-].[Cl-].[Cl-].[O-2].[O-2].[Ru+3].[Ru+3].[Ru+4] [Ruthenium red] | confirmed neuroprotective activity | –
20 | O=C(O)c1nn(Cc2ccc(Cl)cc2Cl)c2ccccc12 [Lonidamine] | confirmed neuroprotective activity | –
21 | O=S(=O)(NCCNC/C=C/c1ccc(Br)cc1)c1cccc2cnccc12 [Combination H89] | – | toxicity / protection with or of the PKA inhibitor (STHdh^Q111 cells [3]): no significant protection or toxicity; selectivity for PKA over PKG (PKA): ~10 fold; levels of nuclear pCREB [7]: decreased
22 | CCOC(=O)C1=C[C@]2(CC)CCCN3CCc4c(n1c1ccccc41)[C@@H]32 [Vinpocetine] | confirmed neuroprotective activity | –
23 | O=C(CCCCCCC(=O)Nc1ccccc1)NO [Vorinostat] | confirmed neuroprotective activity | –
24 | CN1CCN(C2=Nc3ccccc3Oc3ccc(Cl)cc32)CC1 [Loxapine succinate] | confirmed neuroprotective activity | reduction in the level of protection compared to compound alone (STHdh^Q111 cells [3]): 52%; cytoplasmic pPKA, concentration response [4]: concentration-dependent increase
25 | O=C(OCCN1CCCCC1)c1c[nH]c2ccccc12 [SB 203186] | confirmed neuroprotective activity | –
26 | CCOc1ccc2nc(S(N)(=O)=O)sc2c1 [Ethoxzolamide] | confirmed neuroprotective activity | –
27 | Cc1cccc(C(=O)NCN2CCN(c3ccccc3C#N)CC2)c1.O=C(O)/C=C\C(=O)O [PD 168,077 maleate] | confirmed neuroprotective activity | –
28 | C[C@]12CCC(=O)C=C1CC[C@@H]1[C@@H]2[C@@H](O)C[C@@]2(C)[C@H]1CC[C@]2(O)C(=O)CO [Hydrocortisone] | confirmed neuroprotective activity | –
29 | Cc1cccc(CN2CCN(C(c3ccccc3)c3ccc(Cl)cc3)CC2)c1 (stereo not shown) [Meclizine] | confirmed neuroprotective activity | –
30 | Cc1ccc(/C(=C\CN2CCCC2)c2ccccn2)cc1 [Triprolidine hydrochloride] | confirmed neuroprotective activity | –
31 | O=c1[nH]c2ccccc2n1CCCN1CCC(n2c(=O)[nH]c3cc(Cl)ccc32)CC1 [Domperidone] | confirmed neuroprotective activity | reduction in the level of protection compared to compound alone (STHdh^Q111 cells [3]): 56%
32 | CN1CCC(=C2c3ccccc3C=Cc3ccccc32)CC1 [Cyproheptadine hydrochloride] | confirmed neuroprotective activity | –
33 | Cc1c(OCC(F)(F)F)ccnc1C[S+]([O-])c1nc2ccccc2[nH]1 (stereo not shown) [Lansoprazole] | confirmed neuroprotective activity | –
34 | C[C@]12C=CC(=O)C=C1CC[C@H]1[C@@H]3C[C@@H](O)[C@](O)(C(=O)CO)[C@@]3(C)C[C@H](O)[C@@]12F [Triamcinolone] | confirmed neuroprotective activity | –
